In assay [1] the test system is EGF-induced HER2 and MAPK autophosphorylation. As to the kind of experiment: Western blotting of EGF-induced ErbB signaling and intracellular PRL in HER2CA GH3 cells. The class given is cell-based, rat. Background: In western blotting, separated proteins are transferred to a membrane and probed.
Experimental: Proteins were separated on 4 to 12% NuPAGE Bis-Tris gels and electro-transferred for 3 h to polyvinylidene difluoride membranes (Invitrogen). Membranes were blocked for 1 h in 5% nonfat dry milk or 5% bovine serum albumin in TBS-T buffer, and incubated overnight with primary antibody. The following primary antibodies were used: anti-pErk1/2, anti-Erk1/2, anti-Akt, anti-pEGFR (Tyr1068), anti-EGFR, anti-pHER3/ErbB3 (Tyr1289), and anti-Cleaved Caspase-3 from Cell Signaling Technology, anti-pNeu (Tyr1248), anti-Neu (C-18), anti-HER3/ErbB3, anti-PRL, and anti-GAPDH from Santa Cruz Biotechnology, and anti-pAkt (Ser473) from Abcam. After washing with TBS-T, membranes were incubated with peroxidase-conjugated secondary antibody for 1 h (5% nonfat dry milk or 5% bovine serum albumin in TBS-T buffer).
For assay [2], the system named is GH3 cells stably expressing HER2CA. As to the kind of experiment: Realtime PCR of PRL and GH mRNA in GH3 stable transfectants. Particulars: for suppression of PRL expression: Her2CA-GH3 cells. It is filed as cell-based, rat. On the procedure:
A. […] C. GH and PRL secretion in the culture medium determined by RIA. Hormone secretion levels were normalized for cell numbers, Values are mean±SEM. *p<0.05, **p<0.01. […] GH3 rat lacto-somatotroph tumor cells secreting PRL and GH were purchased from the American Type Culture Collection. HER2CA cells were generated by transfection with […]) purchased from Addgene (Addgene plasmid 16259). Stable colonies were selected in the presence of 500 μg/ml G418 (Invitrogen). A vector control cell line pcDNA3 was simultaneously established by transfecting pcDNA3 that lacked inserted cDNA. […] After synchronization by serum starvation (medium containing 0.2% bovine serum albumin for 24 h), cells with treatment agents was grown in fresh serum-depleted medium (0.2% bovine serum albumin), and samples collected at the indicated times. Total RNA was extracted with Trizol reagent (Invitrogen) according to instructions of the manufacturer. The amount and the integrity of RNA were assessed by measurement of absorbance at 260 and 280 nm. Total RNA was reverse-transcribed into first-strand cDNA using iScript cDNA synthesis kit (Bio-Rad Laboratories, Inc.) according to the manufacturer. Quantitative PCR reactions were carried out in the iQ5 Multicolor Real-time PCR Detection System (Bio-Rad Laboratories, Inc.) as described (8). […] Primer sequences (Invitrogen) were [NT] rRNA forward ([…] rRNA reverse ([NT] (human (3-actin [NT] (human (3-actin […]).

The test system is the same in assay [3]. As to the kind of experiment: RIA of PRL and GH secretion in culture medium of GH3 stable transfectants. The class given is cell-based, rat. Conditions: HER2CA GH3 cells, 1 μM. On the procedure:
μM) for the indicated times, and Realtime PCR analysis performed. C. GH and PRL secretion in the culture medium determined by RIA. Hormone secretion levels were normalized for cell numbers, Values are mean±SEM. *p<0.05, **p<0.01.
GH3 rat lacto-somatotroph tumor cells secreting PRL and GH were purchased from the American Type Culture Collection. HER2CA cells were generated by transfection with pcDNA3-HER2CA (V654E) purchased from Addgene (Addgene plasmid 16259). Stable colonies were selected in the presence of 500 μg/ml G418 (Invitrogen). A vector control cell line pcDNA3 was simultaneously established by transfecting pcDNA3 that lacked inserted cDNA. After selection and propagation of stable transfectants, cells were cultured in DMEM/F12 medium containing 15% horse serum, 2.5% FBS, penicillin/streptomycin, and 500 μg/m G418. After synchronization by serum starvation (medium containing 0.2% bovine serum albumin for ˜24 h), cells with treatment agents was grown in fresh serum-depleted medium (0.2% bovine serum albumin), and samples collected at the indicated times.
RIAs for rat GH and PRL were performed in duplicate, using reagents provided by the National Hormone and Pituitary Program, National Institute of Diabetes and Digestive and Kidney Diseases (Harbor-UCLA Medical Center, Torrance, Calif., USA). Iodination of GH and PRL (5 μg) with iodine-125 (500 μCi) (PerkinElmer life & Analytical Sciences, Boston, Mass., USA) mixed with 0.1 mg Iodo-Gen (Pierce, Rockford, Ill.) was performed using 10-ml columns prepared by G-75 Sephadex (Sigma Chemical Co.). Low interspecies cross-reactivity of the GH and PRL assays were previously shown (8).

Assay [4] has as its system estrogen induced pituitary lactotroph tumor. Briefly: Estrogen induced pituitary lactotroph tumor in Fischer-344 rats. The class given is in vivo, rat. Conditions: F344 rats. On the procedure: 17β-estradiol-filled capsules or empty capsule were inoculated subcutaneously in F344 rats (4-5 weeks of age) for one month. A. Western blotting analysis was performed using collected pituitary or pituitary tumor. Next 17β-estradiol-filled capsules were inoculated subcutaneously in F344 rats (4-5 weeks of age) for 2 months. After capsule excision, oral vehicle or lapatinib was administered for 2 weeks. […] C. Tumor weights were measured after euthanasia. D. Serum PRL and GH levels were measured by RIA.
Next, 4-5 wk ovariectomized female Fishcer-344 rats (Harlan Sprague Dawley, Inc.) were s.c. implanted with an 17β-estradiol-filled […] brand capsule (Dow Corning Corp., Medical Grade Tubing Special; length, 3 cm; od, 0.125 in.; id, 0.062 in.) under isoflurane inhalational anesthesia. Two months thereafter, when serum PRL levels reached 3000 ng/ml, 17β-estradiol-filled capsules were extracted, and animals were treated with lapatinib (100 mg/kg) or vehicle (0.5% methylcellose, 0.5% tween80/PBS; 100 μl) via oral gavage twice a day for 2 weeks. 500 μl blood was collected for hormone assessment by retro-orbital bleeding under isoflurane inhalational anesthesia. On the last treatment day (day 14), rats were euthanized within 3 h of drug administration. Cardiac blood was collected and pituitary tumors excised and weighed. Fragments of each tumor were fixed in formalin and embedded in paraffin, preserved in RNA later solution, or frozen in liquid nitrogen.
Next, the inventors tested Fischer-344 rats treated with 17β-estradiol as a model for pituitary prolactinomas (24). […] The inventors then extracted the capsule, and initiated oral lapatinib or vehicle treatment for a subsequent 2 weeks.

The mark [5] stands for this setting: 100 mg/kg oral gavage twice a day for 2 weeks.

Entries after “also recorded” stand apart in the source; their conditions may differ.

With `CS(=O)(=O)CCNCc1ccc(-c2ccc3ncnc(Nc4ccc(OCc5cccc(F)c5)c(Cl)c4)c3c2)o1` [lapatinib, Lapatinib], the “intracellular PRL levels” value in assay [1] (Western blotting) is “decreased”. The “attenuation of Her1/EGFR and Her2/Neu signaling (HER2 and MAPK autophosphorylation)” value in assay [1] (pretreated 0.1-10 μM 45 min, EGF 5 nM 10 min) is “attenuated EGF-induced HER2 and MAPK autophosphorylation more markedly than gefitinib; also recorded: blocked”. Also, the “PRL mRNA levels” value in assay [2] (HER2CA GH3 cells, 1 μM) is reported as “more marked suppression”. For the same molecule, in assay [2], the “suppression of PRL expression” value is on record as around 70%. In addition, the “suppression of PRL secretion” value in assay [3] (24 h) and in assay [3] (48 h) was 40% throughout. Also, in assay [4] (setting [5]), the “serum GH levels” value was “not altered”. Also, the “suppression of serum PRL levels” value in assay [4] (setting [5]) is reported as around 35%. The “suppression of tumor weight” value in assay [4] (100 mg/kg oral gavage twice a day for 2 weeks after capsule extraction) is around 35%. Besides, the “pituitary tumor growth induced by estrogen” value in assay [4] (oral treatment for 2 weeks) is recorded as “attenuated”.
Take `COc1cc2ncnc(Nc3ccc(F)c(Cl)c3)c2cc1OCCCN1CCOCC1` [gefitinib]: the “suppression of PRL expression” value in assay [2] is reported as around 50%. Moreover, in assay [3] (24 and 48 h), the “PRL secretion, time course of suppression” value is listed as “suppressed PRL secretion only at 24 h”.

These data come from patent publication US20120308567A1, “USE OF TYROSINE KINASE INHIBITORS FOR TREATMENT OF PROLACTINOMA” (CEDARS-SINAI MEDICAL CENTER, priority 2010, published 2012).
